Article PMC9124651, “High-performance thin-layer chromatography in combination with an acetylcholinesterase-inhibition bioassay with pre-oxidation of organothiophosphates to determine neurotoxic effects in storm, waste, and surface water” (Analytical and Bioanalytical Chemistry, 2022)
In brackets after ≈: the same amount, converted by molar mass.

What was measured:
[1] = target: T1, AChE from electric eel (Electrophorus electricus) (Electrophorus electricus, UniProt O42275); assay: AChE-inhibition microtiter assay (Ellman, 96-well, with or without NBS oxidation); format: biochemical; conditions: for IC80 / IC20: no oxidation, 4-PL fit, n = 4; for IC80: read-out: IC20 (inhibition concentration for 20% AChE activity), best fit; for IC20: read-out: IC80 (inhibition concentration for 80% AChE activity), best fit
T1 construct: purchased Sigma-Aldrich GmbH (Steinheim, Germany)
Procedure: Stock solutions (1 mg/mL) of NBS and ascorbic acid were each freshly prepared before the test and then diluted to 10 µg/mL and 100 µg/mL, respectively. The assay was performed with modifications according to Ellman’s method. OTPs, oxons, water, and methanol blanks (15 µL) were each mixed with 15 µL of NBS (10 µg/mL) in a 96-well plate. After an incubation at room temperature for 5 min, the reaction was stopped by adding 15 µL ascorbic acid (100 µg/mL). For the test setup without oxidation, OTPs, oxons, water, and methanol blanks (15 µL) were mixed with 30 µL water per well. Subsequently, 200 µL of a DTNB solution (0.15 mM), buffered in TRIS/HCl at a pH of 7.4, was added to each well of both test setups. Then, 20 µL of an AChE solution (0.5 U/mL), also buffered in TRIS/HCl at a pH of 7.4, was added. An incubation at 30 °C for 30 min without shaking followed. An ATCL solution (0.8 mM) was freshly prepared with water and 30 µL per well was added after incubation. During another incubation at room temperature for 30 min, ATCL was cleaved by AChE into thiocholine and acetic acid. Thiocholine reacts with DTNB to 2-nitro-5-thiobenzoate. The absorbance of the yellow-colored anion was photometrically measured at 405 nm (Sunrise Remote, Tecan Group AG, Männedorf, Schweiz).
Dilution series with eight concentrations of the three OTPs and related oxons (Tab. S1) were freshly prepared from stock solutions (1–10 mg/mL) in methanol. The OTPs and oxons were tested in duplicates with and without prior oxidation in two measurements as described in the “AChE-inhibition microtiter assay” section. Eight water and eight methanol blanks were tested per test setup (oxidation and no oxidation). Of these, two were tested without AChE and two without ATCL. The mean AChE activity (absorption at 405 nm, n = 4) was related to the specific inhibitor dose. The statistic program Prism (version 5.00, Graph Pad Software, San Diego, USA) was used to generate dose–response curves (4-PL fit) and to determine inhibition concentrations (ICs) for the three OTPs and related oxons. The 95% confidence intervals of the curves and the standard deviations of the mean AChE activity were also calculated. The lower boundary of the curves is fixed to 0 and the highest mean activity defines 100%.

[2] = target: T1, AChE from electric eel (Electrophorus electricus); assay: HPTLC-(Ox)-AChE-I assay, spray method (AChE sprayed onto plates); format: biochemical; conditions: spray method, without oxidation; for IC10 (10% AChE inhibition), best fit / IC20 (20% AChE inhibition), best fit / IC50 (50% AChE inhibition), best fit / IC80 (80% AChE inhibition), best fit: OTPs 100 µL, oxons 10 µL applied, peak heights, n = 3
Procedure: LiChrospher 10 × 20 cm HPTLC Silica gel 60 F254s plates (Merck, Darmstadt, Germany) with a layer thickness of 170–190 µm and spherical silica particles with a size of 7 µm were used. The HPTLC plates were immersed twice in 2-propanol for 20 min, each time followed by a drying step at room temperature for 20 min. The plates then were pre-developed with methanol, dried for 20 min at room temperature, heated at 105 °C for 20 min, and stored in a desiccator for further use. The automatic TLC Sampler 4 (ATS 4, CAMAG AG, Muttenz, Switzerland) was used for sample application. The desired sample volumes were sprayed as 6-mm-wide bands onto the HPTLC plates with an application speed of 300 nL/s. The distances of the exterior bands from the edges of the plates were 15 mm. The distance from the bottom edge was 8 mm for all bands. Methanol was used as rinsing solvent. The following further application parameters were used: filling speed 15 µL/s, pre-dosage volume 200 nL, retraction volume 200 nL, rinsing vacuum time 4 s, filling vacuum time 0 s, rinsing cycles 2, and filling cycles 1. The development of the HPTLC plates was realized by the Automated Multiple Development 2 (AMD 2, CAMAG, Muttenz, Switzerland). The OTPs, their oxons, and environmental samples were separated with an eluent mixture of cyclohexane, dichloromethane, and acetone in different proportions and with increasing migration distances (Fig. S2). After each development step, a drying step of 3 min under vacuum followed. The final migration distance was 80 mm and the whole procedure took approximately 45 min. In addition, a simpler development process was used containing only the last step of the previous described method.
The following AChE-I assay was performed in parts according to Mendoza et al., Stütz et al., and Weins and Jork. AChE was buffered in TRIS/HCl at a pH of 7.8 (2.5 U/mL). The AChE solution was either sprayed onto the HPTLC plates with a glass reagent sprayer until the plates were evenly moist (approx. 10 mL) or the plates were immersed in the AChE solution using the Chromatogram Immersion Device 3 (CID 3, CAMAG, Muttenz, Switzerland). The immersion volume, speed, time, and depth were approx. 200 mL, 2.5 cm/s, 2 s, and approx. 85 mm, respectively. Afterward, the plates were placed separately in closed plastic boxes, which contained paper towels moistened with water to gain a saturated atmosphere. An incubation at 37 °C for 5 min followed. The substrate indoxyl acetate was freshly prepared in methanol at a concentration of 20 mg/mL and 5 mL was sprayed onto the HPTLC plates with a glass reagent sprayer. During 45-min incubation time at room temperature, AChE cleaves the substrate into indoxyl and acetate. The indoxyl reacts with oxygen to the blue indigo dye. When AChE was inhibited, no indigo was produced and the spot stayed white. The TLC Scanner 3 (CAMAG, Muttenz, Switzerland) was used to scan each track on the plates at 670 nm using the fluorescence mode without optical filter. The CAMAG-embedded software Wincats (Vers. 1.4.9) was used to provide chromatograms of each track and to evaluate inhibition zones.
Several amounts of an OTP mix and an oxon mix were applied on HPTLC plates (Tab. S2) and tested as described in the “Combination of HPTLC and AChE-inhibition assay” section. Three plates were used for each dilution series. The application volume was 10 µL for investigating OTPs with following oxidation and 100 µL for testing OTPs without following oxidation. The application volume for the oxons was 10 µL. They were tested without oxidation step also in triplicates. The peak heights were used for evaluation. Only peaks that have a signal-to-noise ratio ≥ 3 were considered in the evaluation. The height next to the respective peak defines the noise.

T1 sequence (O42275 24-633): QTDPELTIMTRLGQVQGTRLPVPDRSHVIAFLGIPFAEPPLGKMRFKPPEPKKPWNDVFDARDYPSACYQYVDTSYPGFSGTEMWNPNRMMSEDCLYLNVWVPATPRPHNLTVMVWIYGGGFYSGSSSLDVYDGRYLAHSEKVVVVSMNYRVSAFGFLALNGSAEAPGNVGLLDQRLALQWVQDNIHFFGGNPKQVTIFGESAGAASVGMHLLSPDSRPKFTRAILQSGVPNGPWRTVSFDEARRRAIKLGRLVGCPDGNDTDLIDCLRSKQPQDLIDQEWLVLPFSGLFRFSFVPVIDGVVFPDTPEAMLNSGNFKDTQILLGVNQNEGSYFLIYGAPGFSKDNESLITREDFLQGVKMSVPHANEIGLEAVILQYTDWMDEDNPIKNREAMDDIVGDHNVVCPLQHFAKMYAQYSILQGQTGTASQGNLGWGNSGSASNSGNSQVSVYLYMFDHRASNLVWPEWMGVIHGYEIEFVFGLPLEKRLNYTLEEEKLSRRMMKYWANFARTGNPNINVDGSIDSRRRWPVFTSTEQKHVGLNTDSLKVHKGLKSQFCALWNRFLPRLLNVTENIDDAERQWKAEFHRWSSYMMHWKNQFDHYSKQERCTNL

SMILES	IC80 [1] [ng/mL]	IC20 [1] [ng/mL]	LOD spray method (first detected AChE-I peak with signal-to-noise ratio ≥ 3) [2] [ng/spot]	IC10 (10% AChE inhibition), best fit [2] [ng/spot]	IC20 (20% AChE inhibition), best fit [2] [ng/spot]	IC50 (50% AChE inhibition), best fit [2] [ng/spot]	IC80 (80% AChE inhibition), best fit [2] [ng/spot]	IC50 [1] [nM]
CCOP(=O)(OCC)Oc1nc(Cl)c(Cl)cc1Cl [Chlorpyrifos-oxon]	16 (≈ 0.0478 µM)	3.8 (≈ 0.0114 µM)	0.25	0.72	1.1	2.5	5.4	–
CCOC(=O)CC(SP(=O)(OC)OC)C(=O)OCC (stereo not drawn) [Malaoxon, malaoxon]	42 (≈ 0.134 µM)	3.5 (≈ 0.0111 µM)	0.1	0.16	0.28	0.75	2.0	38.2
